Counter-ions that a name gives are not always drawn.
Key:
OVCAR-8 = assay: Cytotoxic activity, OVCAR-8 cells; assay type: cell-based; conditions: Homo sapiens, OVCAR-8, 96 h, read-out: EC50 OVCAR-8
NCI/ADR-RES = assay: Cytotoxic activity, NCI/ADR-RES cells; assay type: cell-based; conditions: Homo sapiens, 96 h, read-out: EC50 NCI/ADR-RES
[1] = target: tubulin (colchicine site) (Bos taurus, UniProt P81947+Q6B856); assay: Inhibition of [3H]colchicine binding to tubulin; parameters: species or system bovine; conditions: read-out: colchicine binding inhibition (%)
tubulin (colchicine site), sequence (P81947 whole entry): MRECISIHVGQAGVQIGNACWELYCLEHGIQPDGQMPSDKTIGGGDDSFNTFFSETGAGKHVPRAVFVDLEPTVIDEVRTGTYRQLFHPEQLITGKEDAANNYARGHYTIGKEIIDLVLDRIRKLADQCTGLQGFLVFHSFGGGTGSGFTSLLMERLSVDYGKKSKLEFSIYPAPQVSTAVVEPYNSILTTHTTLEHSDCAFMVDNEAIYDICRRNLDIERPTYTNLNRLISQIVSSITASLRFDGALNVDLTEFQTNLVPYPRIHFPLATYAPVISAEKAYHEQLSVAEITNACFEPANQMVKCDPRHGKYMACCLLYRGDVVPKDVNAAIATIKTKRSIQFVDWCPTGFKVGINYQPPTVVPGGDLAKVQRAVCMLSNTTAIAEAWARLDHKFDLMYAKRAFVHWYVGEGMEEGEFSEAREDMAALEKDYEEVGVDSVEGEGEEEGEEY
tubulin (colchicine site), sequence (Q6B856 whole entry): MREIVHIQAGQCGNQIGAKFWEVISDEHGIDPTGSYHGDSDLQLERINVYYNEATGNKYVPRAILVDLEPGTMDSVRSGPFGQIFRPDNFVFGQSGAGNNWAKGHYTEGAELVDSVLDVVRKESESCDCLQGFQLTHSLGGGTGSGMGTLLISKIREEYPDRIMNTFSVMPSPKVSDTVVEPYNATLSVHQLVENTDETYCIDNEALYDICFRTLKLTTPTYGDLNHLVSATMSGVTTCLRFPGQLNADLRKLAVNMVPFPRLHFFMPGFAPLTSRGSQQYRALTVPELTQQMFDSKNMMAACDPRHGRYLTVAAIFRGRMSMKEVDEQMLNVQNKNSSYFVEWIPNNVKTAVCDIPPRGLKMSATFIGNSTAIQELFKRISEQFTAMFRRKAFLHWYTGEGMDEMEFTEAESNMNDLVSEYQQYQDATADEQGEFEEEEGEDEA

OVCAR-8 cells = assay: Cell cycle analysis by FACS; assay type: cell-based, human; conditions: OVCAR-8, 1.0 μM, 24 h, P < 0.05

Row | inhibition at 5 µM [1] [%] | Compound | EC50 (OVCAR-8) [nM] | EC50 (NCI/ADR-RES) [nM] | proportion of cells arrested at G2/M compared to control cells (OVCAR-8 cells)
1 | 72 ± 0.4 | c1ccc(-c2cccc(Nc3ncnc4cc5c(cc34)OCO5)c2)cc1 [Compound 1] | – | – | significantly increased
2 | 41 ± 7 | c1ccc(-c2cccc(Nc3ncnc4cc5c(cc34)OCCO5)c2)cc1 [Compound 2] | – | 350 ± 80 | –
3 | 34 ± 1 | c1ccc(-c2cccc(Nc3ncnc4cc5c(cc34)OCCCO5)c2)cc1 [Compound 3] | – | – | –
4 | 25 ± 4 | c1ccc(-c2cccc(Nc3ncnc4cc5c(cc34)OCCO5)c2)nc1 [Compound 6, (7,8-Dihydro[1,4]dioxino[2,3-g]quinazolin-4-yl)-[3′-(pyridin-yl-2″-yl)phenyl]amine Hydrochloride] | – | – | –

The next lines start with the molecule.

Row | Compound | inhibition at 5 µM [1] [%] | EC50 (OVCAR-8) [nM] | EC50 (NCI/ADR-RES) [nM] | proportion of cells arrested at G2/M compared to control cells (OVCAR-8 cells)
5 | COc1ccc(/C=C\c2cc(OC)c(OC)c(OC)c2)cc1O [CA-4, combretastatin A-4] | – | 18 ± 4 | 13 ± 4 | –
6 | Cl.c1cc(Nc2ncnc3cc4c(cc23)OCCO4)cc(-c2cccs2)c1 [Compound 5, (7,8-Dihydro[1,4]dioxino[2,3-g]quinazolin-4-yl)-[3′-(thien-2″-yl)phenyl]amine Hydrochloride] | 75 ± 0.8 | – | – | significantly increased
7 | c1cc(Nc2ncnc3cc4c(cc23)OCCO4)cc(-c2ccc[nH]2)c1 [Compound 9, (7,8-Dihydro[1,4]dioxino[2,3-g]quinazolin-4-yl)-[3′-(pyrrol-2″-yl)phenyl]amine Hydrochloride] | 33 ± 7 | – | – | –
8 | CC(=O)O[C@H]1C(=O)[C@@]2(C)[C@H]([C@H](OC(=O)c3ccccc3)[C@]3(O)C[C@H](OC(=O)[C@H](O)[C@@H](NC(=O)c4ccccc4)c4ccccc4)C(C)=C1C3(C)C)[C@]1(OC(C)=O)CO[C@@H]1C[C@@H]2O [paclitaxel] | – | 5.5 ± 0.7 | 5000 | –
